pIC50: −log10 of the molar value.

One experiment relates to WiDr (NTR+ve). As to the kind of experiment: Cell proliferation (sulphorhodamine B) IC50, NTR-transfected WiDr human colon cells. In kind it is cell-based. The conditions noted are these: for WiDr WT:NTR IC50 Ratio: 4 h, sensitivity ratio for NTR expression; for pIC50: 4 h drug exposure, growth 5 further days.
For a further experiment, the system named is A549 (P450R+ve). As to the kind of experiment: Cell proliferation (sulphorhodamine B) IC50, P450R-transfected A549 human lung cells, anoxia vs 20% O2. The conditions noted are these: for A549 (P450R+ve) 20% O2/anoxia IC50 Ratio: 4 h, sensitivity ratio for hypoxia. In kind it is cell-based.
Setting [1] is: 4 h drug exposure under 0% oxygen.
Setting [2] is: A549, 4 h drug exposure under 0% oxygen.

As for “2-[Bis(2-Chloroethyl)Amino]-N-(6-Hydroxybexyl)-3,5-Dinitrobenzamide [IIb-6]”, in the experiment with WiDr (NTR+ve), the “WiDr WT:NTR IC50 Ratio” value is 5 and the pIC50 is 4.57.

For the molecule “2-((2-Bromoethyl)-2-{[(2-Hydroxyethyl)Amino]Carbonyl}-4,6-Dinitroanilino)Ethyl Methanesulfonate [IIb-12]”, in the experiment on WiDr (NTR+ve), the “WiDr WT:NTR IC50 Ratio” value was determined as 48 and the pIC50 is 6.40. In addition, in the experiment on A549 (P450R+ve), the “A549 (P450R+ve) 20% O2/anoxia IC50 Ratio” value stood at 133. The molecule further gave a pIC50 in the experiment with A549 (P450R+ve) (setting [1]) of 6.55.

Take `O=C(NCCCO)c1cc(N(CCBr)CCBr)c([N+](=O)[O-])cc1[N+](=O)[O-]` [IIa-8, N-(3-Hydroxypropyl)-5-[Bis(2-Bromoethyl)Amino]-2,4-Dinitrobenzamide]: the “WiDr WT:NTR IC50 Ratio” value in the experiment with WiDr (NTR+ve) was 224. In addition, the figures for the pIC50 in the experiment on WiDr (NTR+ve) (WiDr) and in the experiment on A549 (P450R+ve) (setting [2]) were 5.80 and 4.64, respectively. For the same molecule, in the experiment on A549 (P450R+ve), the “A549 (P450R+ve) 20% O2/anoxia IC50 Ratio” value was found to be 6.6.

On to `O=C(NCCCCCO)c1cc(N(CCBr)CCBr)c([N+](=O)[O-])cc1[N+](=O)[O-]` [IIa-10, N-(5-Hydroxypentyl)-5-[Bis(2-Bromoethyl)Amino]-2,4-Dinitrobenzamide], for which, in the experiment with WiDr (NTR+ve), the “WiDr WT:NTR IC50 Ratio” value was 22. This molecule also showed a pIC50 in the experiment on WiDr (NTR+ve) (WiDr) of 5.00.

Turning to `O=C(NCCO)c1cc(N(CCI)CCI)c([N+](=O)[O-])cc1[N+](=O)[O-]` [IIa-14, 5-[Bis(2-Iodoethyl)Amino]-N-(2-Hydroxyethyl)-2,4-Dinitrobenzamide], the “WiDr WT:NTR IC50 Ratio” value in the experiment with WiDr (NTR+ve) is given as 49. In addition, the pIC50 in the experiment on WiDr (NTR+ve) (WiDr) is 5.54; in the experiment on A549 (P450R+ve) (setting [2]) it was 4.89. Also, in the experiment with A549 (P450R+ve), the “A549 (P450R+ve) 20% O2/anoxia IC50 Ratio” value came to 4.5.

As for `O=C(NCCCCCCO)c1cc(N(CCBr)CCBr)c([N+](=O)[O-])cc1[N+](=O)[O-]` [IIa-11, N-(6-Hydroxyhexyl)-5-[Bis(2-Bromoethyl)Amino]-2,4-Dinitrobenzamide], the “WiDr WT:NTR IC50 Ratio” value in the experiment with WiDr (NTR+ve) was 9. Besides, the negative-log IC50 (pIC50) with WiDr (NTR+ve) (WiDr) is 4.96.

`O=C(NCCO)c1cc(N(CCBr)CCBr)c([N+](=O)[O-])cc1[N+](=O)[O-]` [IIa-7, N-(2-Hydroxyethyl)-5-[Bis(2-Bromoethyl)Amino]-2,4-Dinitrobenzamide]: the “WiDr WT:NTR IC50 Ratio” value in the experiment with WiDr (NTR+ve) is listed as 99. For the same molecule, the pIC50 in the experiment on WiDr (NTR+ve) (WiDr) is 5.82; in the experiment on A549 (P450R+ve) (setting [2]) it was 5.17. Moreover, the “A549 (P450R+ve) 20% O2/anoxia IC50 Ratio” value in the experiment on A549 (P450R+ve) came out at 49.

Take `O=C(NCCCCO)c1c([N+](=O)[O-])ccc(N(CCBr)CCBr)c1[N+](=O)[O-]` [IIc-9, 3-[Bis(2-Bromoethyl)Amino]-N-(4-Hydroxybutyl)-2,6-Dinitrobenzamide]: the “WiDr WT:NTR IC50 Ratio” value in the experiment with WiDr (NTR+ve) turned out to be 6. In addition, the pIC50 in the experiment with WiDr (NTR+ve) (WiDr) was 4.51; in the experiment on A549 (P450R+ve) (setting [2]) it was 5.14. Further, in the experiment with A549 (P450R+ve), the “A549 (P450R+ve) 20% O2/anoxia IC50 Ratio” value is recorded as 21.

`O=C(NCCCO)c1c([N+](=O)[O-])ccc(N(CCBr)CCBr)c1[N+](=O)[O-]` [IIc-8, 3-[Bis(2-Bromoethyl)Amino]-N-(3-Hydroxypropyl)-2,6-Dinitrobenzamide]: the “WiDr WT:NTR IC50 Ratio” value in the experiment with WiDr (NTR+ve) was determined as 70. In addition, the pIC50 in the experiment with WiDr (NTR+ve) (WiDr) was 5.30; with A549 (P450R+ve) (setting [2]) it was 5.18. In addition, the “A549 (P450R+ve) 20% O2/anoxia IC50 Ratio” value in the experiment on A549 (P450R+ve) came to 24.

`O=C(NCCCCO)c1cc([N+](=O)[O-])cc([N+](=O)[O-])c1N(CCCl)CCCl` [IIb-4, 2-[Bis(2-Chloroethyl)Amino]-N-(4-Hydroxybutyl)-3,5-Dinitrobenzamide]: the “WiDr WT:NTR IC50 Ratio” value in the experiment with WiDr (NTR+ve) was 18. The molecule further had a pIC50 in the experiment with WiDr (NTR+ve) (WiDr) of 4.85.

For “2-((2-Bromoethyl)-2-{[(2-Hydroxypropyl)Amino]Carbonyl}-4,6-Dinitroanilino)Ethyl Methanesulfonate [IIb-13]”, in the experiment with WiDr (NTR+ve), the “WiDr WT:NTR IC50 Ratio” value stood at 27 and the pIC50 is 6.52. Also, the “A549 (P450R+ve) 20% O2/anoxia IC50 Ratio” value in the experiment with A549 (P450R+ve) was 138. The same molecule gave a pIC50 in the experiment with A549 (P450R+ve) (setting [1]) of 6.82.

With `O=C(NCCCCCO)c1cc([N+](=O)[O-])cc([N+](=O)[O-])c1N(CCCl)CCCl` [IIb-5, 2-[Bis(2-Chloroethyl)Amino]-N-(5-Hydroxypentyl)-3,5-Dinitrobenzamide], in the experiment on WiDr (NTR+ve), the “WiDr WT:NTR IC50 Ratio” value is 19. Further, in the experiment with WiDr (NTR+ve) (WiDr), the pIC50 is 4.89.

What is called pIC50 is the negative decadic logarithm of the IC50, by convention in mol/L. Lower therefore signals a high IC50.

For the origin of these results see patent US7629332B2, “Nitrophenyl mustard and nitrophenylaziridine alcohols and their corresponding phosphates and their use as targeted cytotoxic agents” (Auckland Uniservices Limited, priority 2003, dated 2009).
